Measurements as given in US20250114331A1, “CONCURRENT TARGETING OF ONCOGENIC PATHWAYS TO ENHANCE CHEMOTHERAPY AND IMMUNOTHERAPY” (THE JOHNS HOPKINS UNIVERSITY, priority 2021, published 2025).
Where two headings read alike, the source gives them in different places.

How the values were obtained:
colorectal cancer cells = details: in mice and in cells cultured under hypoxic and nutrient-deprived conditions; cited from earlier work
H1299 and H1437 cells = assay: qRT-PCR of YAP1 and STAT3 pathway genes after drug treatment for 72 hours; assay type: cell-based, human
Experimental: qRT-PCR. The mRNA expression level of each gene was determined by qRT-PCR. […] We quantified the β-actin mRNA level to normalize the expression levels of the targeted genes. Each sample was tested in triplicate and run three times. Each graph shown in our figures indicates the average mRNA expression level of targeted genes compared with the β-actin expression level, with standard error of mean. To determine doses of these drugs that are effective for pathway inhibition, H1299 and H1437 cells were treated with verteporfin or S3I-201 for 72 hours.

[1] = tested on: MB49, UPPL596 and BBN 975; assay: Cell derived xenografts treated with verteporfin; assay type: in vivo, C57BL/6 mice
Experimental: In vivo xenograft assay and treatment. For in vivo xenograft, cells were suspended in 100 μL of a 1:1 mixture of serum-free DMEM and Cultrex Stem Cell Qualified Reduced Growth Factor Basement Membrane Extract (Trevigen, Gaithersburg, USA), and then injected subcutaneously into the both flanks of C57BL/6 mice for MB49/UPPL595/BBN975 cells. For treatment, animals will be randomized to different treatment groups of 5 mice after growth of tumors to 100 mm3. The potential drugs are anti-PD-L1 monoclonal antibody (B7-H1, Bio X Cell, West Lebanon, USA) and verteporfin (NedKoo, Morrisville, USA). Verteporfin (50 mg/kg) will be administered via i.p. every other day. Anti-PD-L1 monoclonal antibody and the corresponding isotype antibody (200 μg/mouse) were administered via ip injection every 3 to 4 days. Treatment was performed for 14 days. To test the pharmacological inhibition of YAP1 on in vivo tumor growth in NSG and immune competent mice, CDXs were developed using three different mouse derived cancer cell lines (MB49, UPPL596 and BBN 975). Verteporfin was administered interperitoneally at a dose of 50 mg/kg body weight at every other day. […] Tumor mass values also indicate similar trend (FIG. 23C-23E; bottom).

UPPL 595 cells = assay: Wound healing; assay type: cell-based, mouse; details: VP treated versus control cells
H1437 xenografts = assay: H1437 xenograft treatment; assay type: in vivo, NSG mice; details: verteporfin 50 mg/kg i.p. three times a week; S3I-201 5 mg/kg i.p. every day
Text: (§1) For therapeutic experiments, 4- to 5-week-old NOD/SCID/IL2Ry−/− (NSG) mice were obtained from the Johns Hopkins Medical Institute's (Baltimore, MD) animal care facility. We injected H1299 cells (1×106) and H1437 cells (1×106), which were suspended in the mixture as described above, subcutaneously into both flanks. For the patient-derived xenograft (PDX) models, 13 PDX blocks (CTG0162, 0178, 0502, 0848, 1309, 1351, 1358, 1361, 1762, 1885, 2017, 2481, and 2708) were obtained from Champion Oncology. All these PDXs were established from primary lung adenocarcinoma tumors. The tumor tissues were cut into 4×2 mm pieces and implanted in the subcutaneous spaces of both flanks. When tumor volumes reached to 200+50 mm3, mice were randomly assigned to six experimental groups [control, chemo (cisplatin+gemcitabine), chemo+verteporfin, chemo+S3I-201, “all” (cisplatin+gemcitabine+verteporfin+S3I-201), and verteporfin+S3I-201] at 5 mice per group. Cisplatin (Sigma-Aldrich; #P4394), gemcitabine (Medkoo; #100410), S3I-201 (MedKoo; #202541), and verteporfin (Sigma-Aldrich; #1711461) were used to treat the mice. Cisplatin (2.5 mg/kg) and gemcitabine (120 mg/kg) were administrated via intraperitoneal injection once a week (22). […] Each tumor volume was measured every 3 days. Therapeutic efficacy was evaluated from percentage change of the tumor volume compared with the tumor size before treatment.

[2] = used clinically, or in clinical trials; cited from earlier work
YAP1 = YAP1 (Homo sapiens, UniProt P46937); details: cited from earlier work
MB49, UPPL595 and BBN975 = assay: FABP4 expression and lipid droplet quantification after VP, mouse UCB cell lines; assay type: cell-based
Experimental: RNA extraction and quantitative reverse transcriptase polymerase chain reaction (Q-RT-PCR). Total RNA from cell lines was isolated using the RNeasy Plus Mini Kit (Qiagen, Germantown, USA), according to the manufacturer's protocol. This total RNA was converted to cDNA using the SuperScript III First-Strand Synthesis System (Life technologies, Carlsbad, USA), which was then used as a template for qRT-PCR. qRT-PCR was performed using the Fast SYBR Green Master Mix (Thermo Fisher Scientific, Waltham, USA) on a Quant studio 6 Fast Real-Time PCR System (Life technologies) in triplicate. SDS software (Applied Biosystems) was used to determine cycle threshold (Ct) values. The expression levels were quantified relative to β-actin using the 2-ΔΔCt method. YAP1 influences the accumulation of lipid droplets in cancer cells. […] Therefore, apart from investigating the altered regulation of intracellular signaling cascades, the present inventors also studied cellular metabolism in response to YAP1 modulation. […] It was reported that FABP4 is a critical molecule in accumulation of lipid droplets in the intracellular compartments (45). […] As increased amount of L-lactate correlated with more glycolysis and poor prognosis of cancer (46), the present inventors quantified L-lactate in mouse and human UCB cells with YAP1 modulation.

H1299 xenografts = assay: H1299 xenograft treatment; assay type: in vivo, NSG mice; details: verteporfin 50 mg/kg i.p. three times a week; S3I-201 5 mg/kg i.p. every day
Text: as §1

Sequence of YAP1 (P46937 whole entry, species assumed): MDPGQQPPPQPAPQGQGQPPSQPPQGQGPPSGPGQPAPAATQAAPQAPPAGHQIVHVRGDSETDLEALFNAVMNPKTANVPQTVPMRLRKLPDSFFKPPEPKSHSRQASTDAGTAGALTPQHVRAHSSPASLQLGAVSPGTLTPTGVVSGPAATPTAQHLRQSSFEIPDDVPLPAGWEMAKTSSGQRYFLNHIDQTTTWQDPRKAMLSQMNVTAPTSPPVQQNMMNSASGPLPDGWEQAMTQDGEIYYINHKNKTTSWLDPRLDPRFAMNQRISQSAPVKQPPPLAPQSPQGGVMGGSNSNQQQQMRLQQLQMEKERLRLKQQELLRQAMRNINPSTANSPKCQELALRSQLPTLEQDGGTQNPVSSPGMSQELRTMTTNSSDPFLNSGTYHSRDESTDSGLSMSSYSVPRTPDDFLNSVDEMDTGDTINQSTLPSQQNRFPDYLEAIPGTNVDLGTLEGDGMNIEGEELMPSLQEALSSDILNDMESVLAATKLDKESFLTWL

For C=Cc1c(C)c2cc3nc(cc4[nH]c(cc5nc(cc1[nH]2)C(C)=C5CCC(=O)O)c(CCC(=O)OC)c4C)[C@@]1(C)C3=CC=C(C(=O)OC)[C@H]1C(=O)OC [verteporfin, 3-[(23S,24R)-14-ethenyl-5-(3-methoxy-3-oxopropyl)-22,23-bis(methoxycarbonyl)-4,10,15,24-tetramethyl-25,26,27,28-tetraazahexacyclo[16.6.1.13,6.18,11.113,16.019,24]octacosa-1,3,5,7,9,11(27),12,14,16,18(25),19,21-dodecaen-9-yl]propanoic acid], the “killing of colorectal cancer cells by protein oligomer accumulation” value (colorectal cancer cells) is listed as “selectively killed colorectal cancer cells”, the “mRNA expression of YAP1 and downstream targets CTGF and CYR61” value (H1299 and H1437 cells) is listed as “suppressed mRNA expressions of YAP1 and its downstream targets, such as CTGF and CYR61, in a dose-dependent manner” and the “mRNA expression of YAP1 and downstream targets CTGF and CYR61” value (H1299 and H1437 cells; listed as Verteporfin) is listed as “suppressed mRNA expression of YAP1, and its downstream targets, CTGF and CYR61, as the drug concentration was increased”. The tumor growth ([1]; 50 mg/kg body weight i.p. every other day, immune competent mice) was “significant regression in tumor growth”, the “CCN1 and CCN2 expression (YAP1 downstream genes)” value ([1]; RT-qPCR) was “downregulated” and the “YAP1 expression in the tumor tissue” value ([1]; pharmacodynamic analysis) was “decrease YAP1 expression”. For the same compound, the wound closure (UPPL 595 cells) was “significant difference in wound closure”, the tumor growth (H1437 xenografts) was “did not significantly affect tumor growth” and the adverse effects [2] was “few severe adverse effects were reported”. The “binding to YAP1 and YAP1-TEAD2 interaction” value (YAP1) was “bind to YAP1 and change its conformation, thereby abrogating its interaction with TEAD2”, the “expression level of FABP4” value (MB49, UPPL595 and BBN975) was “significantly downregulated” and the tumor growth (H1299 xenografts) was “inhibited growth”.
